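Interpolation was linear, between the two tested concentrations surrounding the appropriate level; five concentrations were tested over 48 hours in 96-well plates. At the TGI there is no net growth.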
Experiments:
Assay in all cases: inhibition of tumour cell growth, NCI panel, 48 h
ACHN renal = system: ACHN renal
CCRF-CEM leukemia = system: CCRF-CEM leukemia
EKVX NSCLC = system: EKVX NSCLC
HCT-116 colon = system: HCT-116 colon
KM20L2 colon = system: KM20L2 colon
M14 melanoma = system: M14 melanoma
MALME-3M melanoma = system: MALME-3M melanoma
NCI-H226 lung = system: NCI-H226 lung
NCI-H460 lung = system: NCI-H460 lung
NCI-H522 lung = system: NCI-H522 lung
OVCAR-4 ovarian = system: OVCAR-4 ovarian
OVCAR-8 ovarian = system: OVCAR-8 ovarian
RPMI-8226 leukemia = system: RPMI-8226 leukemia
SF-295 CNS = system: SF-295 CNS
SK-MEL-28 melanoma = system: SK-MEL-28 melanoma
SR leukemia = system: SR leukemia
SW-620 colon = system: SW-620 colon
UACC-257 melanoma = system: UACC-257 melanoma
MCF7 breast = system: MCF7 breast
MDA-MB-231 breast = system: MDA-MB-231 breast

SMILES	TGI (ACHN renal) [µM]	TGI (CCRF-CEM leukemia) [µM]	TGI (EKVX NSCLC) [µM]	TGI (HCT-116 colon) [µM]	TGI (KM20L2 colon) [µM]	TGI (M14 melanoma) [µM]	TGI (MALME-3M melanoma) [µM]	TGI (NCI-H226 lung) [µM]	TGI (NCI-H460 lung) [µM]	TGI (NCI-H522 lung) [µM]	TGI (OVCAR-4 ovarian) [µM]	TGI (OVCAR-8 ovarian) [µM]	TGI (RPMI-8226 leukemia) [µM]	TGI (SF-295 CNS) [µM]	TGI (SK-MEL-28 melanoma) [µM]	TGI (SR leukemia) [µM]	TGI (SW-620 colon) [µM]	TGI (UACC-257 melanoma) [µM]	TGI (MCF7 breast) [µM]	TGI (MDA-MB-231 breast) [µM]
C[C@H](OCc1ccccc1)C(=O)N1CCS(=O)(=O)N2CCC[C@H]2C1=O	> 100	> 100	> 100	> 100	> 100	> 100	> 100	> 100	> 100	> 100	> 100	> 100	> 100	> 100	> 100	> 100	> 100	> 100	–	–
CS(=O)(=O)N1CC(CCl)c2ccc([N+](=O)[O-])cc21 (stereo not drawn)	> 100	> 100	> 100	> 100	–	> 100	> 100	> 100	> 100	> 100	> 100	> 100	> 100	> 100	> 100	> 100	> 100	> 100	> 100	> 100
COc1cc(Cn2c3ccccc3c3cc(C)c4c(c32)C=CC(C)(CCC=C(C)C)O4)cc2c1[nH]c1ccccc12 (stereo not drawn)	> 100	> 100	> 100	> 100	> 100	> 100	> 100	–	> 100	> 100	> 100	> 100	> 100	> 100	> 100	> 100	> 100	> 100	–	–
CC(=O)N1C(c2[nH]c3ccccc3c2-c2ccccc2)CCN1c1ccccc1 (stereo not drawn)	> 10	> 10	> 10	> 10	–	> 10	> 10	> 10	> 10	> 10	> 10	> 10	> 10	> 10	> 10	> 10	> 10	> 10	> 10	> 10
COc1ccc2oc(=N)c(C(=O)NCc3ccccc3)cc2c1	73.9	> 100	> 100	> 100	–	> 100	39.3	85	> 100	43.5	> 100	40.4	> 100	65	> 100	> 100	55.6	> 100	69.1	58.1
O=C1C=C2C(=NC34CCCCC3C(c3ccccc3)C3=C(c5ccccc5CC3)N24)c2ccccc21 (stereo not drawn)	> 10	> 10	> 10	> 10	–	> 10	> 10	> 10	> 10	> 10	> 10	> 10	> 10	> 10	> 10	> 10	> 10	> 10	> 10	> 10
CC1=C(C(=O)O)N2C(=O)[C@@H](NC(=O)C(c3ccc(O)cc3)N3CSC(=S)N(C(C)C)C3)C2SC1 (stereo partly drawn)	> 100	> 100	> 100	> 100	> 100	> 100	> 100	–	> 100	> 100	> 100	> 100	> 100	> 100	> 100	–	–	> 100	–	–
CN(C)CCCNC(=O)CCNC(=O)c1cc(NC(=O)c2cc(NC(=O)c3cc(NC(=O)c4nc(NC(=O)CCCNC(=O)c5cc(NC(=O)c6cc(NC(=O)c7cc(NC(=O)c8nccn8C)cn7C)cn6C)cn5C)cn4C)cn3C)cn2C)cn1C	> 100	> 100	> 100	> 100	–	> 100	> 100	> 100	> 100	> 100	> 100	> 100	> 100	> 100	> 100	> 100	> 100	> 100	> 100	> 100
Cc1ccc(C2=Nc3cccc4cccc(c34)N2)cc1	> 100	> 100	> 100	> 100	–	> 100	> 100	> 100	> 100	> 100	> 100	> 100	> 100	> 100	> 100	> 100	> 100	> 100	> 100	> 100
Cc1c(/C=N/NC(=O)c2cc(Br)cc(Br)c2O)c(=O)n(-c2ccccc2)n1C	> 100	> 100	> 100	> 100	> 100	> 100	> 100	> 100	> 100	> 100	> 100	> 100	> 100	> 100	49.8	–	> 100	> 100	–	–
CN(CC1(CO)CCC1)c1cc(Cl)nc(N)n1	> 100	> 100	> 100	> 100	–	> 100	> 100	> 100	> 100	> 100	> 100	> 100	> 100	> 100	> 100	> 100	> 100	> 100	> 100	> 100
O=c1c2nn3c(=O)n(-c4ccccc4)c(=O)c3nn2c(=O)n1-c1ccccc1	> 100	> 100	> 100	> 100	–	> 100	> 100	> 100	> 100	> 100	> 100	> 100	> 100	> 100	> 100	> 100	> 100	> 100	> 100	> 100
O=C(CCCN1CCC2(CC1)OC(=O)N(c1ccccc1)C2=O)c1ccccc1	> 100	> 100	> 100	> 100	–	> 100	> 100	> 100	> 100	> 100	> 100	> 100	> 100	> 100	> 100	> 100	> 100	> 100	> 100	93.4
O=C(C1OC1c1ccc(O)cc1)C12CC3CC(CC(C3)C1)C2 (stereo not drawn)	> 94.5	> 41.5	> 78.2	> 69.8	–	> 100	98.9	> 100	> 100	24.7	> 100	> 100	> 73	> 100	> 100	> 100	70.3	> 100	> 100	> 100
Cn1cnc(CCc2ccccc2)n1	> 100	> 100	–	> 100	> 100	> 100	> 100	> 100	> 100	> 100	> 100	> 100	> 100	> 100	> 100	> 100	> 100	> 100	–	–
O=C(/C=C/c1csc(-c2ccccc2)n1)NCc1ccc(C(=O)NCCc2ccccc2)cc1	> 100	> 100	> 100	> 100	–	> 100	> 100	90.2	> 100	> 100	> 100	63	> 100	30.9	> 100	> 100	> 100	> 100	> 100	55.6
c1ccc([P+](Cc2ccc(C[P+](c3ccccc3)(c3ccccc3)c3ccccc3)cc2)(c2ccccc2)c2ccccc2)cc1	> 100	> 100	> 100	> 100	–	> 100	> 100	> 100	> 100	> 100	> 100	> 100	> 100	> 100	> 100	> 100	> 100	> 100	> 100	> 100
O=C1C(Br)=CC2(C=C1Br)CCNC1=C2C(=O)c2ccccc2C1=O	27.9	19	99.1	17.6	91.8	69.3	33.8	–	–	14.4	–	98	41	33.2	–	–	87.8	53.3	–	–
O=C(CCC(NC(=O)OCc1ccccc1)C(=O)OCc1ccccc1)Nc1ccc(OCc2ccccc2)cc1 (stereo not drawn)	> 31.6	> 31.6	> 31.6	17.1	–	> 100	> 31.6	> 31.6	> 31.6	> 100	> 31.6	20.2	> 10	> 31.6	> 31.6	> 31.6	> 31.6	> 31.6	19.9	25.6
COC(=O)C1=CC2CCCC1(O)C(C(C)=O)C2 (stereo not drawn)	> 100	> 68.3	> 86.6	> 100	–	> 100	> 100	> 100	> 100	31.7	> 100	> 79.5	69.6	> 100	> 100	> 81.5	> 100	> 100	> 100	> 100
CC(=O)N1C(Nc2ccccn2)CCN1c1ccccc1 (stereo not drawn)	> 10	> 10	> 10	> 10	–	> 10	> 10	> 10	> 10	> 10	> 10	> 10	> 10	> 10	> 10	> 10	> 10	> 10	> 10	> 10
COc1ccc2c(C)cc(N/N=C(\C)C=O)nc2c1	29.7	4	32.8	26.5	–	35.2	28	24.7	24.9	29.6	25.5	25	22.9	28.8	32.4	3.79	27.5	33.9	26	24
N=c1oc2c(Cl)cc(Cl)cc2cc1C(=O)Nc1cccc2ccccc12	11.2	14.4	> 74.3	40.6	–	> 100	> 100	66.2	62.1	> 100	6.37	14.2	53.3	96.9	> 100	> 21.1	27.1	> 100	> 100	11.3
O=c1cc(NNc2ccccc2)[nH]c(=S)[nH]1	> 100	88.6	> 100	53.9	–	> 100	> 100	> 100	> 100	35.7	> 100	> 100	58.6	> 100	> 100	70.3	49.5	> 100	> 100	65.2
COC(=O)c1ccccc1CC1Cc2ccc3c(c2C1=O)CCC3 (stereo not drawn)	> 100	> 100	> 100	> 100	–	> 100	> 100	> 100	> 100	88	> 100	> 100	> 100	> 100	> 100	> 100	> 100	> 100	90.3	> 100

Source: PubChem BioAssay (NCI)
